Source: ChEMBL document CHEMBL1128977, “Antioxidant properties of nitrocaffeic acids” (Bioorg Med Chem Lett, 1996)

What was measured:
[1] = Compound was evaluated for hydroxyl radical (OH) scavenging activity
[2] = Superoxide anion (O2-) scavenging activity
[3] = target: Xanthine dehydrogenase/oxidase (Homo sapiens, UniProt P47989); assay: Compound was evaluated for inhibition of xanthine oxidase; design: concentration or dose not given beside the values
Chain of Xanthine dehydrogenase/oxidase (P47989 whole entry): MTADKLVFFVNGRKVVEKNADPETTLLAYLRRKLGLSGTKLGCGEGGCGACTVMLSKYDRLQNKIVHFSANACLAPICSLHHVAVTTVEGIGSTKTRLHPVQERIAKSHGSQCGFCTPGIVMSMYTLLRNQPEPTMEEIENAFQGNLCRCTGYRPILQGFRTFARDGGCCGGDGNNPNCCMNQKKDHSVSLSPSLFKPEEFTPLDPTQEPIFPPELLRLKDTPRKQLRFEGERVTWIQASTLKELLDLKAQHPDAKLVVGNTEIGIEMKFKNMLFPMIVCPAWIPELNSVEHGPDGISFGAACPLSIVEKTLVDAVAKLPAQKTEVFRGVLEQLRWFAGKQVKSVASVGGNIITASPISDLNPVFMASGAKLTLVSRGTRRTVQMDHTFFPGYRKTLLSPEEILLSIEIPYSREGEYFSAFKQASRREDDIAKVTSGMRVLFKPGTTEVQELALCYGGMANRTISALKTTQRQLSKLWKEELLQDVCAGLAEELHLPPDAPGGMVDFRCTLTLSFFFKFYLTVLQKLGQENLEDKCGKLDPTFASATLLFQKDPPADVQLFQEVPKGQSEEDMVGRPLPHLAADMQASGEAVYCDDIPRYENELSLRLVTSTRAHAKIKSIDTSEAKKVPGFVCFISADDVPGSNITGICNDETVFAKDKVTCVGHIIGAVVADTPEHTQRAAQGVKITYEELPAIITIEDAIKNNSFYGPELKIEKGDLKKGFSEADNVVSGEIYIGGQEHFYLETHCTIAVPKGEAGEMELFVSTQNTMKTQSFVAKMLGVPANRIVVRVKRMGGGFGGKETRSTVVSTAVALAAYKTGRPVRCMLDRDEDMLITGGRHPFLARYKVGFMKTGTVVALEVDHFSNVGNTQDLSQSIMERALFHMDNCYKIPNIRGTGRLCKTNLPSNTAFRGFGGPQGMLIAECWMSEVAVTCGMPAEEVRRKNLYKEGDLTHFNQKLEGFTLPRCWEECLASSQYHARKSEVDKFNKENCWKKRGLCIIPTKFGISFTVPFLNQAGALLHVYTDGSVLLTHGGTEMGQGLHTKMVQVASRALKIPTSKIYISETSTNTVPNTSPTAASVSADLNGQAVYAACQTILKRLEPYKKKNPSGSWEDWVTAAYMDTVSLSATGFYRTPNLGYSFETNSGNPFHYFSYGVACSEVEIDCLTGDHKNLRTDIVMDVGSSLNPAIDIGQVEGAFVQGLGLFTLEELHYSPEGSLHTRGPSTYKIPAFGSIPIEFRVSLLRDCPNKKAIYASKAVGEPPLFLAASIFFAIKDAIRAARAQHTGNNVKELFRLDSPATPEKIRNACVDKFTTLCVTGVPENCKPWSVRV

Row | IC50 [1] [µM] | IC50 [2] [µM] | Inhibition [3] [%] | SMILES
1 | 130 | 250 | 9 | O=[N+]([O-])c1ccc(O)c(O)c1 [4-Nitrocatechol]
2 | 300 | 500 |  | CC(=O)C(Cc1cc(O)c(O)c([N+](=O)[O-])c1)C(C)=O
3 | 400 | 185 | 70 | O=C(O)/C=C/c1cc(O)c(O)c([N+](=O)[O-])c1
4 | 85 | 1000 | 12 | O=[N+]([O-])c1cc(O)ccc1O
5 |  | 95 | 18 | O=C(O)/C=C/c1ccc(O)c(O)c1 [CAFFEIC ACID]
6 | 180 | 250 | 5 | O=[N+]([O-])c1cccc(O)c1O
7 | 250 | 150 | 36 | O=C(O)/C=C/c1cc(O)c(O)cc1[N+](=O)[O-]
8 | 425 | 35 | 61 | O=C(O)/C=C/c1ccc(O)c(O)c1[N+](=O)[O-]

Row | SMILES | IC50 [1] [µM] | IC50 [2] [µM] | Inhibition [3] [%]
9 | Oc1ccccc1O [CATECHOL] |  | 30 | 5
